Patent US20250034161A1, “SPIROCYCLIC COMPOUND AS KRAS-G12C INHIBITOR” (Shanghai Euregen Biopharma Co., Ltd., priority 2020, published 2025)

Tests used:
CYP 2C19 = CYP 2C19 (Homo sapiens, UniProt P33261); test: CYP inhibition test, human liver microsomes, CYP2C19
Procedure: • 1. Test purpose: to evaluate the inhibitory ability of some of the example compounds of the present invention against CYP1A2, 2B6, 2C8, 2C9, 2C19, 2D6 and 3A4 via human liver microsomes. • 2. […] Test method:
• 1. K/Mg buffer: the components were 0.1 mol/L potassium phosphate and 5 mmol/L magnesium chloride with pH 7.4±0.1, preheated. • 2. Solution of the test compound: the test compound was dissolved in dimethyl sulfoxide to prepare a stock solution of 10 mmol/L. 8 μL of 10 mmol/L stock solution was transferred to a 96-well plate containing 12 μL of acetonitrile as the highest concentration point, at 3-fold dilution, for 8 concentrations. • 3. NADPH solution: 66.7 mg of NADPH was dissolved in 10 mL of 0.1 mol/L K/Mg buffer to obtain 8 mmol/L NADPH solution with pH 7.4. • 4. Human liver microsomal stock solution: human liver microsomes were dissolved in 0.1 mol/L K/Mg buffer to obtain 20 mg/mL stock solution. • 5. Human liver microsomal working solution: 10 μL of 20 mg/mL human liver microsomal stock solution was taken and added into 990 μL of 0.1 mol/L K/Mg buffer to prepare 0.2 mg/mL human liver microsomal solution. • 6. […]

[1] = Plasma protein binding assay (equilibrium dialysis), dog plasma; assay type: in vitro ADME; conditions: pH 7.4, equilibrium dialysis 5 hours, read-out: Plasma protein binding rate (%) (converted)
Procedure: (§1) • 1. Test purpose: to evaluate the protein binding rate of the test compound in human, dog, monkey, rat and mouse plasma by equilibrium dialysis; • 2. […] Experimental methods: • 0.1 mol/L sodium phosphate and 0.15 mol/L sodium chloride buffer with pH 7.4±0.1 was preheated;
(§2) Preparation of plasma containing test substance: the test compound was dissolved in DMSO to prepare a 10 mmol/l stock solution. 5 μL of stock solution was taken and diluted with 95 μL of acetonitrile to obtain solution A (0.5 mmol/L). 8 μL of solution A was taken and diluted with 192 μL of 0.1 mol/L sodium phosphate buffer to obtain solution B (0.02 mmol/L). 570 μL of plasma was added into a 96-well plate followed by the addition of 30 μL of solution B. The final concentration was 1 μmol/L with 0.01% DMSO.
(§3) The plate was shook at 600 rpm for 10 minutes, covered and stored in a freezer (−20° C.).
(§4) T5 sample preparation (in triplicate): the dialysis device was added with 100 μL of buffer on its receiver side and 100 μL of plasma containing the test compound on its doner side. And the dialysis device was then shook at 37° C. and 120 rpm for 5 hours. At the end of culture, 25 μL of plasma containing the test substance was taken from the plasma side and then added to a 96-well plate, followed by the addition of 25 μL of buffer and 200 μL of acetonitrile solution containing internal standard. […]

[2] = Plasma protein binding assay (equilibrium dialysis), human plasma; assay type: in vitro ADME; conditions: pH 7.4, equilibrium dialysis 5 hours, read-out: Plasma protein binding rate (%) (converted)
Procedure: as §1, §2, §3, §4

Chain of CYP 2C19 (P33261 whole entry): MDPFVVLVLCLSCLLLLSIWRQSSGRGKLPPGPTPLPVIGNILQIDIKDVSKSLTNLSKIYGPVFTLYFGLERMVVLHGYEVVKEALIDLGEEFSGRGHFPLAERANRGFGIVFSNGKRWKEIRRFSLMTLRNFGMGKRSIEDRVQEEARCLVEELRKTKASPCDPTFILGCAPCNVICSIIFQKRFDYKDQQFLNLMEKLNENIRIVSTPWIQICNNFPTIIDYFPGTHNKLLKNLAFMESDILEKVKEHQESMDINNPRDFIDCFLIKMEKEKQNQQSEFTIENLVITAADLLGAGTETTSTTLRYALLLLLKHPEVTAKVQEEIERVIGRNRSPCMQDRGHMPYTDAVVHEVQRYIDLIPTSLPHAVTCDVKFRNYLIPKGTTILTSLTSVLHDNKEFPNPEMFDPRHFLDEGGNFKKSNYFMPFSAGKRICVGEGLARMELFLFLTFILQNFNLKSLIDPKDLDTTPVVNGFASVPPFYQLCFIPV

Row | SMILES | IC50 (CYP 2C19) [µM] | fraction unbound at 5 h, 1 μmol/L [1] | fraction unbound at 5 h, 1 μmol/L [2]
1 | C=CC(=O)N1CCN(c2nc(=O)n(-c3c(C)ccnc3C(C)C)c3nc(-c4c(O)cccc4F)c(F)cc23)[C@@H](C)C1 [AMG510] | > 10 | 0.079 | 0.075
2 | C=C(F)C(=O)N1CCN(c2nc(OC[C@@H]3CCCN3C)nc3c2CCN(c2cccc4cccc(Cl)c24)C3)C[C@@H]1CC#N [MRTX849] | > 10 | 0.012 | 0.018
